Results published in US20220098203A1 (priority 2018, published 2022).
pIC50: −log10 of the molar value.

Columns and labels:
HCT116 MTAP-/- = experiment: Inhibition of cellular proliferation (Cell Titer Glo), HCT116 MTAP-/-; assay type: cell-based, human; settings: Homo sapiens, HCT-116, 96 h, Table 5a, 4 days, read-out: 4 Day Relative Growth Inhibition (MTAP −/−)
Outline: (§1)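 After 4 days of compound exposure at 37 °C, starting 24 h after plating, growth of the MTAP-wildtype and MTAP-deleted HCT116 pair was measured as ATP luminescence (CellTiter-Glo). The proliferation index was signal minus no-cell blank, divided by blank-corrected 0.2% DMSO control.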

HCT116 MTAP+/+ = experiment: Inhibition of cellular proliferation (Cell Titer Glo), HCT116 MTAP+/+; assay type: cell-based; settings: Homo sapiens, HCT-116, 96 h, Table 5a, 4 days, read-out: 4 Day Relative Growth Inhibition (MTAP +/+)
Outline: as §1

[1] = tested on: SAM in HCT116 MTAP-deleted cells; experiment: Cellular assay of target engagement (SAM), LC-MS/MS; assay type: cell-based, human; settings: Homo sapiens, HCT-116, Table 5a, 72 h, read-out: Cell 72 h SAM Inhibition (MTAP −/−)
Outline: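 Target engagement was read as intracellular SAM, measured by LC-MS/MS with d3-SAM as internal standard in methanol/acetic acid extracts. These came from MTAP-deleted HCT116 colon carcinoma cells exposed to inhibitor for 72 hrs.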

MAT2A homodimer = biological target: T1, MAT2A homodimer (Homo sapiens, UniProt P31153); experiment: MAT2A biochemical assay (liberated phosphate, PiColorLock Gold); settings: Table 5a; MAT2A biochemical assay; read-out: Enzyme Inhibition
T1 construct: inferred from the Ni sepharose purification and imidazole elution; made in house; host or cells: SF9 insect cells, recombinant baculovirus (Bac to Bac, pFASTBAC1)
Outline: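 Readout is liberated phosphate (PiColorLock Gold), stoichiometric with SAM production, quantified against a potassium phosphate standard curve. Enzyme: recombinant MAT2A homodimer from Sf9, equilibrated 60 min at 25 °C with compound before 60 min reaction with substrate mix containing 500 μM ATP and 400 μM L-methionine.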

T1 sequence (P31153 whole entry): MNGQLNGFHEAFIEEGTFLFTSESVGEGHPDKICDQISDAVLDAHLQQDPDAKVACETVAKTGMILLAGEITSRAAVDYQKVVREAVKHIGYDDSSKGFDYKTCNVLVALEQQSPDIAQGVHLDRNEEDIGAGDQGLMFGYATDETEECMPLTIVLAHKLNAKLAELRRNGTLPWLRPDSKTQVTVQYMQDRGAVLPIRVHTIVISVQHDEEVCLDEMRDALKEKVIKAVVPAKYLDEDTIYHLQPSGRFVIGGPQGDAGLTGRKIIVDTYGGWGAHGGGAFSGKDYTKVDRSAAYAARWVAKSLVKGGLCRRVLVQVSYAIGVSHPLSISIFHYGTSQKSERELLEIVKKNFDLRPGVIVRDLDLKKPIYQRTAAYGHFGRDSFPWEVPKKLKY

| Compound | pIC50 (HCT116 MTAP-/-) | pIC50 (HCT116 MTAP+/+) | pIC50 [1] | pIC50 (MAT2A homodimer) |
| --- | --- | --- | --- | --- |
| Cc1nc2ccc(N3Cc4cnc(NCC(F)(F)F)nc4N(c4ccc(OC(F)F)cc4)C3=O)cc2n1C [Example 424] | 6.00 to 7.00 | < 6.00 | > 7.00 | > 7.00 |
| Cn1cc2cc(N3Cc4ncc(NCC(F)(F)F)cc4N(c4ccc(OC(F)F)cc4)C3=O)ccc2n1 [Example 428, 1-(4-(difluoromethoxy)phenyl)-3-(2-methyl-2H-indazol-5-yl)-7-((2,2,2-trifluoroethyl)amino)-3,4-dihydropyrido[3,2-d]pyrimidin-2(1H)-one] | > 7.00 | < 6.00 | > 7.00 | > 7.00 |
| CO[C@H]1CC[C@H](N2C(=O)N(c3ccc4nn(C)cc4c3)Cc3ccc(OCC(F)F)nc32)CC1 [Example 429, 7-(2,2-difluoroethoxy)-1-(trans-4-methoxycyclohexyl)-3-(2-methyl-2H-indazol-5-yl)-3,4-dihydropyrido[2,3-d]pyrimidin-2(1H)-one] | 6.00 to 7.00 | < 6.00 | 6.00 to 7.00 | > 7.00 |
| [2H]C([2H])([2H])Oc1ccc(N2C(=O)N(c3ccc4nc(OC)n(C)c4c3)Cc3ccc(OCC(F)F)nc32)cc1 [Example 431, 7-(2,2-difluoroethoxy)-3-(2-methoxy-1-methyl-1H-benzo[d]imidazol-6-yl)-1-(4-(methoxy-d3)phenyl)-3,4-dihydropyrido[2,3-d]pyrimidin-2(1H)-one] | 6.00 to 7.00 | < 6.00 | > 7.00 | > 7.00 |
| [2H]C([2H])([2H])Oc1ccc(N2C(=O)N(c3ccc4nn(C)cc4c3)Cc3c(NC)nc(NCC(F)(F)F)nc32)cc1 [Example 432, 1-(4-(methoxy-d3)phenyl)-3-(2-methyl-2H-indazol-5-yl)-5-(methylamino)-7-((2,2,2-trifluoroethyl)amino)-3,4-dihydropyrimido[4,5-d]pyrimidin-2(1H)-one] | > 7.00 | < 6.00 | > 7.00 | > 7.00 |
| [2H]C([2H])([2H])Oc1ccc(N2C(=O)N(c3ccc4nc(C)n(C)c4c3)Cc3ccc(OC(C)C)nc32)cc1 [Example 434, 3-(1,2-dimethyl-1H-benzo[d]imidazol-6-yl)-7-isopropoxy-1-(4-(methoxy-d3)phenyl)-3,4-dihydropyrido[2,3-d]pyrimidin-2(1H)-one] | > 7.00 | 6.00 to 7.00 | > 7.00 | > 7.00 |

More lines, now with the values ahead:

| pIC50 (HCT116 MTAP-/-) | pIC50 (HCT116 MTAP+/+) | pIC50 [1] | pIC50 (MAT2A homodimer) | Compound |
| --- | --- | --- | --- | --- |
| > 7.00 | < 6.00 | > 7.00 | > 7.00 | [2H]C([2H])([2H])Oc1ccc(N2C(=O)N(c3ccc4nn(C)cc4c3)Cc3cnc(NCC(F)(F)F)nc32)cc1 [Example 421, 1-(4-(methoxy-d3)phenyl)-3-(2-methyl-2H-indazol-5-yl)-7-((2,2,2-trifluoroethyl)amino)-3,4-dihydropyrimido[4,5-d]pyrimidin-2(1H)-one] |
| > 7.00 | < 6.00 | > 7.00 | > 7.00 | COc1ccc(N2C(=O)N(c3ccc4nn(C)cc4c3)Cc3cnc(NCC(F)(F)F)nc32)cc1 [Example 422, 1-(4-methoxyphenyl)-3-(2-methyl-2H-indazol-5-yl)-7-((2,2,2-trifluoroethyl)amino)-3,4-dihydropyrimido[4,5-d]pyrimidin2(1H)-one] |
| > 7.00 | < 6.00 | > 7.00 | > 7.00 | [2H]C([2H])([2H])Oc1ccc(N2C(=O)N(c3ccc4nn(C([2H])([2H])[2H])cc4c3)Cc3cnc(NCC(F)(F)F)nc32)cc1 [Example 423, 1-(4-(methoxy-d3)phenyl)-3-(2-(methyl-d3)-2H-indazol-5-yl)-7-((2,2,2-trifluoroethyl)amino)-3,4-dihydropyrimido[4,5-d]pyrimidin2(1H)-one] |
| > 7.00 | < 6.00 | > 7.00 | > 7.00 | Cn1cc2cc(N3Cc4cnc(NCC(F)(F)F)nc4N(c4ccc(Br)cc4)C3=O)ccc2n1 [Example 425, 1-(4-bromophenyl)-3-(2-methyl-2H-indazol-5-yl)-7-((2,2,2-trifluoroethyl)amino)-3,4-dihydropyrimido[4,5-d]pyrimidin-2(1H)-one] |
| > 7.00 | < 6.00 | > 7.00 | > 7.00 | [2H]C([2H])([2H])Oc1ccc(N2C(=O)N(c3ccc4nn(C)cc4c3)Cc3c(N)nc(NCC(F)(F)F)nc32)cc1 [Example 430, 5-amino-1-(4-(methoxy-d3)phenyl)-3-(2-methyl-2H-indazol-5-yl)-7-((2,2,2-trifluoroethyl)amino)-3,4-dihydropyrimido[4,5-d]pyrimidin-2(1H)-one] |
